For one test, the target named is T1, FAAH (Homo sapiens, UniProt O00519).
T1 sequence (O00519 1-579): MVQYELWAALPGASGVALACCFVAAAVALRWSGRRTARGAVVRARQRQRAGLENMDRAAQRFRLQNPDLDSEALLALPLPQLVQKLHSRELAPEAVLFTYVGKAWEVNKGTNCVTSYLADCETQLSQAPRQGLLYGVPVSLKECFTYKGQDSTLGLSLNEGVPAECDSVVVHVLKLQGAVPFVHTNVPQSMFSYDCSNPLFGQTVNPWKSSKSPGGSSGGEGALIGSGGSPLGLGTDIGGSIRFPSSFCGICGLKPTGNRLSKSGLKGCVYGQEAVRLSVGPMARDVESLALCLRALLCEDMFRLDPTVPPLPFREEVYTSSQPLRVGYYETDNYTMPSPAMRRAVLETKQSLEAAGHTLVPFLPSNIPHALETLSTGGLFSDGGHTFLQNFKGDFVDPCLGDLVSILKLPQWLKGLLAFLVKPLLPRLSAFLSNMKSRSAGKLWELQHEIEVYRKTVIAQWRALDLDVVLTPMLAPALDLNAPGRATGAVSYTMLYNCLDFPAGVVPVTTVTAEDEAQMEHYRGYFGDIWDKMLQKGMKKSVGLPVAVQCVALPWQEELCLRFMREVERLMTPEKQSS
Kind of test: Assay Method 1: FAAH assay, 3H-anandamide hydrolysis in homogenate of T84 cells or SK-N-MC cells transfected with human FAAH. It is filed as biochemical. The note with it: average of results, > = solubility limit or highest concentration tested. An outline of the steps: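 Homogenates of T84 cells or of SK-N-MC cells stably transfected with human FAAH (G418-selected) were prepared in pH 9 Tris/EDTA/glycerol/Triton buffer. They were incubated with compound and 80 nM final ^3H-anandamide for 1 h at rt. Released ^3H-ethanolamine was separated on activated charcoal and counted by scintillation.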

The target of the next test is T2, rat FAAH (Rattus norvegicus, UniProt P97612).
T2 sequence (P97612 1-579): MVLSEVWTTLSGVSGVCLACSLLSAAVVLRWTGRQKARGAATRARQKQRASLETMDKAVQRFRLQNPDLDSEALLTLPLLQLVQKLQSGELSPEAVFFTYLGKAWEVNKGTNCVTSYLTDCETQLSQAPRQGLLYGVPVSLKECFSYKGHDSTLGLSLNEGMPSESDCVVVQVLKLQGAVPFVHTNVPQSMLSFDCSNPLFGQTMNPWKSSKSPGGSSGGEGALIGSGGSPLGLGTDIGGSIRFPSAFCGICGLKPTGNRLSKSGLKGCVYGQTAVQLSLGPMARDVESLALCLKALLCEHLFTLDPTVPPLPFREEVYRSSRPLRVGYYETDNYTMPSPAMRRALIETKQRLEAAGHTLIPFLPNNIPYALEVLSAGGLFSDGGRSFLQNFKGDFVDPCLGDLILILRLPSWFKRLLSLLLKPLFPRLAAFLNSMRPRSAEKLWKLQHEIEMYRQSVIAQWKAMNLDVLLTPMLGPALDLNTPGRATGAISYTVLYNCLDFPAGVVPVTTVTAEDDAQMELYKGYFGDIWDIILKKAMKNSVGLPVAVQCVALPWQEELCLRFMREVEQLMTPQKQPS
Nature of the test: Assay Method 2: FAAH assay, 3H-anandamide hydrolysis in homogenate of SK-N-MC cells transfected with rat FAAH. It is filed as biochemical. The note with it: average of results, > = solubility limit or highest concentration tested. An outline of the steps:
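Homogenate of SK-N-MC cells stably transfected with rat FAAH cDNA (G418-selected clones) in pH 9 Tris/EDTA/glycerol/Triton buffer. Incubated with compound and 80 nM final [3H]-anandamide for 1 h at rt. Released [3H]-ethanolamine separated from substrate on activated charcoal filters and counted by scintillation.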

Counter-ions that a name gives are not always drawn.

One may read the IC50 as the point on the concentration scale where inhibition reaches its midpoint. On to `O=C(Nc1cccnn1)N1CCN(Cc2ccc(Br)c(Br)c2)CC1` [Example 195, 4-(3,4-Dibromobenzyl)-N-pyridazin-3-ylpiperazine-1-carboxamide], for which the IC50 on FAAH came out at 0.11 µM; at rat FAAH it was 0.31 µM.
In the case of `O=C(Nc1noc2ccccc12)N1CCN(Cc2cccc(C#Cc3cccc(Cl)c3Cl)c2)CC1` [Example 90, N-1,2-Benzisoxazol-3-yl-4-{3-[(2,3-dichlorophenyl)ethynyl]benzyl}-piperazine-1-carboxamide], the IC50 at FAAH amounted to 0.195 µM; at rat FAAH it was 0.815 µM.
For `O=C(Nc1noc2ccccc12)N1CCN(Cc2cccc(Oc3ccc4ncccc4c3)c2)CC1` [Example 114, N-1,2-Benzisoxazol-3-yl-4-[3-(quinolin-6-yloxy)benzyl]piperazine-1-carboxamide] the same measures were 0.02 µM and 0.02 µM.
For `O=C(Nc1cccc2nonc12)N1CCC(Cc2ccc3ccccc3c2)CC1` [Example 15, 4-Naphthalen-2-ylmethyl-piperidine-1-carboxylic acid benzo[1,2,5]oxadiazol-4-ylamide] the same measures were 0.059 µM and 0.023 µM.
Consider `N#Cc1ccc(Oc2cccc(CN3CCN(C(=O)Nc4noc5ccccc45)CC3)c2)cc1` [Example 125, 4-[3-(4-Cyano-phenoxy)-benzyl]-piperazine-1-carboxylic acid benzo[d]isoxazol-3-ylamide], for which the IC50 at FAAH was 0.015 µM; against rat FAAH it was 0.012 µM.
In the same order, the values of `O=C(Nc1ccc2ncsc2c1)N1CCC(Cc2ccc3ccccc3c2)CC1` [Example 19, 4-Naphthalen-2-ylmethyl-piperidine-1-carboxylic acid benzothiazol-6-ylamide] are 1.5 µM and 0.055 µM.
For `O=C(Nc1cnccn1)N1CCN(Cc2cccc(C#Cc3ccccc3Cl)c2)CC1` [Example 78, 4-{3-[(2-Chlorophenyl)ethynyl]benzyl}-N-pyrazin-2-ylpiperazine-1-carboxamide hydrochloride salt] the same measures were 0.059 µM and 0.41 µM.
As to `O=C(Nc1cnccn1)N1CCN(Cc2cccc(Oc3ccc(C(F)(F)F)cc3)c2)CC1` [Example 215, N-Pyrazin-2-yl-4-{3-[4-(trifluoromethyl)phenoxy]benzyl}piperazine-1-carboxamide], the IC50 against FAAH was 0.001 µM; against rat FAAH, 0.03 µM.
For `O=C(Nc1ccon1)N1CCN(Cc2ccc(Br)c(F)c2)CC1` [Example 151, 4-(4-Bromo-3-fluoro-benzyl)-piperazine-1-carboxylic acid isoxazol-3-ylamide] the same measures were 3 µM and 6 µM.
Consider `O=C(Nc1noc2ccccc12)N1CCN(Cc2cccc(C#CC3CCCCC3)c2)CC1` [Example 70, N-1,2-Benzisoxazol-3-yl-4-[3-(cyclohexylethynyl)benzyl]-piperazine-1-carboxamide], for which the IC50 on FAAH and against rat FAAH was 0.046 µM in each case.
As for `O=C(Nc1ccon1)N1CCN(Cc2cccc(Oc3cccc(OC(F)(F)F)c3)c2)CC1` [Example 159, N-Isoxazol-3-yl-4-{3-[3-(trifluoromethoxy)phenoxy]benzyl}piperazine-1-carboxamide], the IC50 on FAAH came to 0.05 µM; against rat FAAH, 0.3 µM.
Take `O=C(Nc1ccon1)N1CCN(Cc2cccc(Oc3ccc(F)c(C(F)(F)F)c3)c2)CC1` [Example 156, 4-{3-[4-Fluoro-3-(trifluoromethyl)phenoxy]benzyl}-N-isoxazol-3-ylpiperazine-1-carboxamide]: the IC50 at FAAH amounted to 0.043 µM; against rat FAAH, 5 µM.
For `O=C(Nc1ccon1)N1CCN(Cc2ccc(F)c(Oc3ccccc3)c2)CC1` [Example 49, 4-(4-Fluoro-3-phenoxy-benzyl)-piperazine-1-carboxylic acid isoxazol-3-ylamide trifluoroacetic acid salt] the same measures were 2 µM and 0.36 µM.
For the molecule `O=C(Nc1ccc2[nH]nnc2c1)N1CCC(Cc2ccc3ccccc3c2)CC1` [Example 16, 4-Naphthalen-2-ylmethyl-piperidine-1-carboxylic acid (1H-benzotriazol-5-yl)-amide], the IC50 on FAAH amounted to 0.039 µM; against rat FAAH, 0.005 µM.
In the same order, the values of `O=C(Nc1noc2ccccc12)N1CCN(Cc2cccc(C#Cc3ccccc3Cl)c2)CC1` [Example 72, N-1,2-Benzisoxazol-3-yl-4-{3-[(2-chlorophenyl)-ethynyl]benzyl}-piperazine-1-carboxamide] are 0.024 µM and 0.03 µM.
As for `N#Cc1cccc(Oc2cccc(CN3CCN(C(=O)Nc4noc5ccccc45)CC3)c2)c1` [Example 129, N-1,2-Benzisoxazol-3-yl-4-[3-(3-cyanophenoxy)benzyl]piperazine-1-carboxamide], the IC50 at FAAH turned out to be 0.08 µM; on rat FAAH, 0.12 µM.
For `O=C(Nc1nn[nH]n1)N1CCN(Cc2cccc(Oc3ccc4ccccc4c3)c2)CC1` [Example 166, 4-[3-(Naphthalen-2-yloxy)benzyl]-N-1H-tetrazol-5-ylpiperazine-1-carboxamide] the same measures were 0.013 µM and 0.007 µM.
As for `COc1ccc(NC(=O)N2CCN(Cc3cccc(Oc4ccc(Cl)cc4)c3)CC2)nn1` [Example 104, 4-[3-(4-Chlorophenoxy)benzyl]-N-(6-methoxypyridazin-3-yl)piperazine-1-carboxamide], the IC50 on FAAH was 0.037 µM; against rat FAAH, 0.69 µM.
For `O=C(Nc1cccc2nonc12)N1CCN(Cc2cccc(C#Cc3ccccc3)c2)CC1` [Example 203, N-2,1,3-Benzoxadiazol-4-yl-4-{[3-(phenylethynyl)phenyl]methyl}-piperazine-1-carboxamide] the same measures were 0.21 µM and 0.35 µM.
As for `O=C(Nc1noc2ccccc12)N1CCC(Cc2ccc3ccccc3c2)CC1` [Example 21, 4-Naphthalen-2-ylmethyl-piperidine-1-carboxylic acid benzo[d]isoxazol-3-ylamide], the IC50 against FAAH turned out to be 0.043 µM; against rat FAAH, 0.007 µM.
On to `Cc1ccccc1CCc1cccc(CN2CCN(C(=O)Nc3noc4ccccc34)CC2)c1` [Example 94, 4-[3-(2-o-Tolyl-ethyl)-benzyl]-piperazine-1-carboxylic acid benzo[d]isoxazol-3-ylamide hydrochloride salt], for which the IC50 on FAAH was determined as 0.38 µM; against rat FAAH it was 0.63 µM.
For `O=C(Nc1noc2ccccc12)N1CCN(Cc2ccc3c(c2)OC(F)(F)O3)CC1` [Example 1, 4-(2,2-Difluoro-benzo[1,3]dioxol-5-ylmethyl)-piperazine-1-carboxylic acid benzo[d]isoxazol-3-ylamide trifluoroacetic acid salt], the half-inhibitory concentration (IC50) against FAAH amounted to 0.103 µM; against rat FAAH it was 0.337 µM.
In the same order, the values of `O=C(Nc1ccsc1)N1CCN(Cc2ccc3c(c2)OC(F)(F)O3)CC1` [Example 8, 4-(2,2-Difluoro-benzo[1,3]dioxol-5-ylmethyl)-piperazine-1-carboxylic acid thiophen-3-ylamide] are 0.77 µM and 0.29 µM.
For `O=C(Nc1cccc2ncccc12)N1CCC(Cc2ccc3ccccc3c2)CC1` [Example 20, 4-Naphthalen-2-ylmethyl-piperidine-1-carboxylic acid quinolin-5-ylamide trifluoroacetic acid salt] the same measures were 0.935 µM and 0.25 µM.
Consider `O=C(Nc1noc2ccccc12)N1CCN(Cc2cccc(C#Cc3cccc(Cl)c3)c2)CC1` [Example 73, N-1,2-Benzisoxazol-3-yl-4-{3-[(3-chlorophenyl)ethynyl]benzyl}-piperazine-1-carboxamide], for which the IC50 is 0.024 µM against FAAH and 0.033 µM on rat FAAH.
In the same order, the values of `O=C(Nc1noc2ccccc12)N1CCN(Cc2ccc3ccccc3c2)CC1` [Example 123, 4-Naphthalen-2-ylmethyl-piperazine-1-carboxylic acid benzo[d]isoxazol-3-ylamide] are 0.02 µM and 0.04 µM.
